target: IgE-Tb / sFcεRIα-Y131A-AF488 (Homo sapiens, UniProt P01854, N146Q/N252Q); test: IgE-Tb / sFcεRIα-Y131A-AF488 FRET assay (protocol for examples 234 to 501); type: binding; details: examples 234 to 501: compound with IgE-Tb 30 minutes before sFcεRIα-Y131A-AF488, incubated 18 hours at room temperature; read-out: Y131A FRET IC50 range
Method in brief: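 Compounds (10-point 3-fold series, top usually 10 μM, 2% DMSO) preincubated 30 min with 5 nM IgE-Tb, then 25 nM sFcεRIα-Y131A-AF488 added; 18 h at room temperature in the dark. TR-FRET ratio 520/490 nm after 337 nm excitation, background-subtracted; IC50 by four-parameter logistic fit.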

Chain of IgE-Tb / sFcεRIα-Y131A-AF488 (P01854 whole entry N146Q/N252Q): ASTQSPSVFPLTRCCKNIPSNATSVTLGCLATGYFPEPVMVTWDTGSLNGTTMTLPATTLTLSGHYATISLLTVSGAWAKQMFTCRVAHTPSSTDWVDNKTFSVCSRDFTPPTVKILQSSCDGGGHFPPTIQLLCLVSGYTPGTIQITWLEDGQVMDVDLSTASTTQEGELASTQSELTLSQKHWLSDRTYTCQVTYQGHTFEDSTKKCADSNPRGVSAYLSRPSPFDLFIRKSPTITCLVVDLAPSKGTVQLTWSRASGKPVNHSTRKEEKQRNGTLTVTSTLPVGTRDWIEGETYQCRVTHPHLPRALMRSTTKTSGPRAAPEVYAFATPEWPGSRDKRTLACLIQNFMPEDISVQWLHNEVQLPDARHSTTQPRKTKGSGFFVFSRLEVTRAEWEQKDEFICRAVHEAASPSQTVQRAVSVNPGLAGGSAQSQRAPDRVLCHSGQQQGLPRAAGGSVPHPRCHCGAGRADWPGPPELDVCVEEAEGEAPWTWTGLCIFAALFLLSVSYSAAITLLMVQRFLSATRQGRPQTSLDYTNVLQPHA

| SMILES | IC50 |
| --- | --- |
| Cc1nscc1Nc1nncn1[C@H]1CCc2sc(NC(=O)C3CC3)c(C(=O)NCC3CC3)c2C1 [Example 307, (5S)-2-(cyclopropanecarbonylamino)-N-(cyclopropylmethyl)-5-[3-[(3-methylisothiazol-4-yl)amino]-1,2,4-triazol-4-yl]-4,5,6,7-tetrahydrobenzothiophene-3-carboxamide] | < 1 µM |
| Cn1nc(C(F)F)cc1Nc1nncn1[C@H]1CCc2sc(NC(=O)C3CC3(F)F)c(C(=O)NC[C@H]3C[C@H](F)C3)c2C1 (single isomer, unassigned) [Example 278, (5S)-2-[[(1R*)-2,2-difluorocyclopropanecarbonyl]amino]-5-[3-[[5-(difluoromethyl)-2-methyl-pyrazol-3-yl]amino]-1,2,4-triazol-4-yl]-N-[trans-(3-fluorocyclobutyl)methyl]-4,5,6,7-tetrahydrobenzothiophene-3-carboxamide] | < 1 µM |
| C[C@H]1C[C@@H]1C(=O)Nc1sc2c(c1C(=O)NCC1CC1(F)F)C[C@@H](n1cnnc1Nc1cc(C(F)F)nn1C)CC2 (stereo partly drawn) [Example 441, (5S)—N-[(2,2-difluorocyclopropyl)methyl]-5-[3-[[5-(difluoromethyl)-2-methylpyrazol-3-yl]amino]-1,2,4-triazol-4-yl]-2-[[(1S,2S)-2-methylcyclopropanecarbonyl]amino]-4,5,6,7-tetrahydro-1-benzothiophene-3-carboxamide] | < 1 µM |
| Cn1nc(OC(F)F)cc1Nc1nncn1[C@H]1CCc2sc(NC(=O)[C@H]3C[C@@H](F)C3)c(C(=O)NCC3CC3)c2C1 [Example 347, (5S)—N-(cyclopropylmethyl)-5-[3-[[5-(difluoromethoxy)-2-methylpyrazol-3-yl]amino]-1,2,4-triazol-4-yl]-2-[cis-(3-fluorocyclobutanecarbonyl)amino]-4,5,6,7-tetrahydro-1-benzothiophene-3-carboxamide] | < 1 µM |
| Cn1nc(OC(F)F)cc1Nc1nncn1[C@H]1CCc2sc(NC(=O)[C@H]3C[C@@H]3F)c(C(=O)NC[C@H]3C[C@H]3F)c2C1 [Example 380, (5S)-5-[3-[[5-(difluoromethoxy)-2-methylpyrazol-3-yl]amino]-1,2,4-triazol-4-yl]-2-[[(1R,2S)-2-fluorocyclopropanecarbonyl]amino]-N-[[(1R,2R)-2-fluorocyclopropyl]methyl]-4,5,6,7-tetrahydro-1-benzothiophene-3-carboxamide] | < 1 µM |
| O=C(NCC1CC1)c1c(NC(=O)C2CC2)sc2c1C[C@@H](n1cnnc1Nc1ccc3c(c1)OC(F)(F)O3)CC2 [Example 419, (5S)-2-(Cyclopropanecarbonylamino)-N-(cyclopropylmethyl)-5-[3-[(2,2-difluoro-1,3-benzodioxol-5-yl)amino]-1,2,4-triazol-4-yl]-4,5,6,7-tetrahydrobenzothiophene-3-carboxamide] | < 1 µM |
| Cn1nc(C(F)(F)F)cc1Nc1nncn1C1COc2sc(NC(=O)C3CC3)c(C(=O)NCC3CC3)c2C1 (single isomer, unassigned) [Example 501, (3R*)-6-(cyclopropanecarbonylamino)-N-(cyclopropylmethyl)-3-[3-[[2-methyl-5-(trifluoromethyl)pyrazol-3-yl]amino]-1,2,4-triazol-4-yl]-3,4-dihydro-2H-thieno[2,3-b]pyran-5-carboxamide (* or S)] | < 1 µM |
| C[C@@H]1C[C@@H]1C(=O)Nc1sc2c(c1C(=O)NCC1CC1)C[C@@H](n1cnnc1Nc1cc(OC(F)F)nn1C)CC2 [Example 306, (5S)—N-(cyclopropylmethyl)-5-[3-[[5-(difluoromethoxy)-2-methyl-pyrazol-3-yl]amino]-1,2,4-triazol-4-yl]-2-[[(1S,2R)-2-methylcyclopropanecarbonyl]amino]-4,5,6,7-tetrahydrobenzothiophene-3-carboxamide] | < 1 µM |
| Cc1cc(Nc2nncn2[C@H]2CCc3sc(NC(=O)C4CC45CC5)c(C(=O)NCC4CC4)c3C2)n(C)n1 (stereo partly drawn) [Example 499, (5S)—N-(cyclopropylmethyl)-5-[3-[(2,5-dimethylpyrazol-3-yl)amino]-1,2,4-triazol-4-yl]-2-(spiro[2.2]pentane-2-carbonylamino)-4,5,6,7-tetrahydrobenzothiophene-3-carboxamide] | < 1 µM |
| O=C(NCC1CC1)c1c(NC(=O)C2CC2)sc2c1C[C@@H](n1cnnc1Nc1ccc(C(F)F)nc1)CC2 [Example 423, (5S)-2-(cyclopropanecarbonylamino)-N-(cyclopropylmethyl)-5-[3-[[6-(difluoromethyl)-3-pyridyl]amino]-1,2,4-triazol-4-yl]-4,5,6,7-tetrahydrobenzothiophene-3-carboxamide] | < 1 µM |
| Cn1nc(C(F)F)cc1Nc1nncn1[C@H]1CCc2sc(NC(=O)[C@H]3CC3(F)F)c(C(=O)NC[C@H]3C[C@H]3F)c2C1 (relative stereo) [Example 498, (5S)-2-[[(1R*)-2,2-difluorocyclopropanecarbonyl]amino]-5-[3-[[5-(difluoromethyl)-2-methyl-pyrazol-3-yl]amino]-1,2,4-triazol-4-yl]-N-[[(1R,2R)-2-fluorocyclopropyl]methyl]-4,5,6,7-tetrahydrobenzothiophene-3-carboxamide (* or S)] | < 1 µM |
| C[C@H]1c2c(sc(NC(=O)C3CC3)c2C(=O)NCC2CC2)CC[C@@H]1n1cnnc1Nc1cc(C(F)(F)F)nn1C (racemic) [Example 421, (4RS,5RS)-2-(cyclopropanecarbonylamino)-N-(cyclopropylmethyl)-4-methyl-5-[3-[[2-methyl-5-(trifluoromethyl)pyrazol-3-yl]amino]-1,2,4-triazol-4-yl]-4,5,6,7-tetrahydrobenzothiophene-3-carboxamide] | < 1 µM |
| Cn1nc(C#N)cc1Nc1nncn1[C@H]1CCc2sc(NC(=O)C3CC3)c(C(=O)NCC3CC3)c2C1 [Example 418, (5S)-5-[3-[(5-Cyano-2-methyl-pyrazol-3-yl)amino]-1,2,4-triazol-4-yl]-2-(cyclopropanecarbonylamino)-N-(cyclopropylmethyl)-4,5,6,7-tetrahydrobenzothiophene-3-carboxamide] | < 1 µM |
| Cn1nc(OC(F)F)cc1Nc1nncn1[C@H]1CCc2sc(NC(=O)[C@H]3C[C@@H]3F)c(C(=O)NC[C@H]3C[C@@H](F)C3)c2C1 (single isomer, unassigned) [Example 377] | < 1 µM |
| Cn1nc(C(F)(F)F)cc1Nc1nncn1[C@H]1CCc2sc(NC(=O)[C@@H]3C[C@@H]3F)c(C(=O)NCC3CC3)c2C1 [Example 401] | < 1 µM |
| CCOC(=O)c1ncn([C@H]2CCc3sc(NC(=O)C4CC4)c(C(=O)NCC4CC4)c3C2)c1Nc1c([N+](=O)[O-])c(C)nn1C [Example 262, Ethyl 1-[(5S)-2-(cyclopropanecarbonylamino)-3-(cyclopropylmethylcarbamoyl)-4,5,6,7-tetrahydrobenzothiophen-5-yl]-5-[(2,5-dimethyl-4-nitro-pyrazol-3-yl)amino]imidazole-4-carboxylate] | < 1 µM |
| Cn1nc(OC(F)F)cc1Nc1nncn1[C@H]1CCc2sc(NC(=O)C3CC3)c(C(=O)NCC3CC34CC4)c2C1 (stereo partly drawn) [Example 444, (5S)-2-(cyclopropanecarbonylamino)-5-[3-[[5-(difluoromethoxy)-2-methylpyrazol-3-yl]amino]-1,2,4-triazol-4-yl]-N-(spiro[2.2]pentan-2-ylmethyl)-4,5,6,7-tetrahydro-1-benzothiophene-3-carboxamide] | < 1 µM |
| Cn1nc(C(F)F)cc1Nc1nncn1[C@H]1CCc2sc(NC(=O)C3CC3)c(C(=O)N[C@H]3CC34CC4)c2C1 (single isomer, unassigned) [Example 495] | < 1 µM |
| Cn1nc(OC(F)F)cc1Nc1nncn1[C@H]1CCc2sc(NC(=O)C3CC3(F)F)c(C(=O)NC[C@H]3C[C@H](F)C3)c2C1 (single isomer, unassigned) [Example 280, (5S)-2-[[(1R*)-2,2-difluorocyclopropanecarbonyl]amino]-5-[3-[[5-(difluoromethoxy)-2-methyl-pyrazol-3-yl]amino]-1,2,4-triazol-4-yl]-N-[trans-(3-fluorocyclobutyl)methyl]-4,5,6,7-tetrahydrobenzothiophene-3-carboxamide] | < 1 µM |
| COc1ccc(Nc2nncn2[C@H]2CCc3sc(NC(=O)C4CC4)c(C(=O)NCC4CC4)c3C2)cn1 [Example 428, (5S)-2-(cyclopropanecarbonylamino)-N-(cyclopropylmethyl)-5-[3-[(6-methoxy-3-pyridyl)amino]-1,2,4-triazol-4-yl]-4,5,6,7-tetrahydrobenzothiophene-3-carboxamide] | < 1 µM |
| COc1ccc2c(c1)Nc1c(ncn1[C@H]1CCc3sc(NC(=O)C4CC4)c(C(=O)NCC4CC4)c3C1)C(=O)N2 [Example 257, (5S)-2-(cyclopropanecarbonylamino)-N-(cyclopropylmethyl)-5-(8-methoxy-4-oxo-5,10-dihydroimidazo[4,5-c][1,5]benzodiazepin-1-yl)-4,5,6,7-tetrahydrobenzothiophene-3-carboxamide] | < 1 µM |
| Cn1nc(OC(F)F)cc1Nc1nncn1[C@H]1CCc2sc(NC(=O)[C@H]3C[C@@H]3F)c(C(=O)N[C@H]3C[C@H](F)C3)c2C1 (single isomer, unassigned) [Example 379] | < 1 µM |
| Cn1nc(C(F)F)cc1Nc1nncn1[C@H]1CCc2sc(NC(=O)C3CC3(F)F)c(C(=O)N[C@H]3C[C@H](F)C3)c2C1 (mixture of isomers) [Example 493, (5S)-2-[(2,2-difluorocyclopropanecarbonyl)amino]-5-[3-[[5-(difluoromethyl)-2-methyl-pyrazol-3-yl]amino]-1,2,4-triazol-4-yl]-N-(trans-3-fluorocyclobutyl)-4,5,6,7-tetrahydrobenzothiophene-3-carboxamide] | < 1 µM |

Reference: patent publication US12018021B2 (UCB Biopharma SRL, priority 2018, dated 2024)
